Assay results taken from patent US20220193013A1, “Pharmaceutical Composition for Treatment or Prevention of Multiple Inflammatory Disorders” (priority 2020, published 2022).

Tested on: DIO mice (C57BL/6NTac, high fat diet)
Assay: body weight study in diet-induced obese (DIO) mice, 56 days
Assay type: in vivo, mouse
Conditions: DA 92.4 mg/kg, CQL 50 mg/kg, gavage BID
Experimental: This example provides results of a study of DA plus another compound (CQL) on body weight in diet-induced (DIO) mice. Adult C57BL/6NTac mice were fed with a high fat diet (60%). Vehicle group (N=15) were treated with distilled water by gavage BID, CQL (N=15) were treated at 50 mg/kg by gavage BID, and DA (N=15) at a dose of 92.4 mg/kg by gavage BID. The study period was for 56 days+2-3 days testing period afterward. […] Metabolic biomarkers were measured on days 28 and 56. Cytokine analysis on Days 28 and 56. Serum levels of GLP-1, GLP-2, and CCK at 1 h after dosing on Days 1 and 56, and at 2 h after dosing on Day 7 (dosing (>6 h fasting prior to dosing until after blood collection); and serum level of PPY on Day 56.

With `Oc1c(I)cc(Cl)c2cccnc12` [CQL] the “serum HbA1c level at Day 28” value was “significantly reduced”, the “serum HbA1c level at Day 56” value was “considerably increased” and the “daily water intake at Day 28” value (compared to vehicle) was “significantly decreased”.
